Experimental data: patent US8518917B2, “2-methylene-19-nor-vitamin D analogs and their uses” (Wisconsin Alumni Research Foundation, priority 2009, dated 2013)
Read-outs that look alike come from different tables or passages of the source.

Tests used:
[1] = target: T1, full-length recombinant rat vitamin D receptor (Rattus norvegicus, UniProt P13053); experiment: Vitamin D receptor competitive binding with [3H]-1,25(OH)2D3; details: read-out: Ki, competition with [3H]-1,25(OH)2D3 for binding to vitamin D receptor
T1 construct: Full-length recombinant rat receptor was expressed in E. coli; histidine tag (C); made in house; host or cells: E. coli BL21 (DE3) Codon Plus RIL
T1 sequence (P13053 1-423): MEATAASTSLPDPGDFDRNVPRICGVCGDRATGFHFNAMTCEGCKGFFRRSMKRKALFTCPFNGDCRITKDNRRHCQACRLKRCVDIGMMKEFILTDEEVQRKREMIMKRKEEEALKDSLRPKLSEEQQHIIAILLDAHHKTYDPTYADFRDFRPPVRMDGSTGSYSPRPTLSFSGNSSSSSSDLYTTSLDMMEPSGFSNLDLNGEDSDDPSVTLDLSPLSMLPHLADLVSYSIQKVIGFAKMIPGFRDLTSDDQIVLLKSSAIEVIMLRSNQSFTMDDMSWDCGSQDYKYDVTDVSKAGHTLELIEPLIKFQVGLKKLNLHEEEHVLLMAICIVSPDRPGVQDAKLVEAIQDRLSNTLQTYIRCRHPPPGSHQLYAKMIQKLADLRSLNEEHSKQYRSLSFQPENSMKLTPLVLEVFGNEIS
Method: Full-length recombinant rat receptor was expressed in E. coli BL21 (DE3) Codon Plus RIL cells and purified to homogeneity using two different column chromatography systems. The first system was a nickel affinity resin that utilizes the C-terminal histidine tag on this protein. The protein that was eluted from this resin was further purified using ion exchange chromatography (S-Sepharose Fast Flow). Aliquots of the purified protein were quick frozen in liquid nitrogen and stored at −80° C. until use. For use in binding assays, the protein was diluted in TEDK50 (50 mM Tris, 1.5 mM EDTA, pH7.4, 5 mM DTT, 150 mM KCl) with 0.1% Chaps detergent. The receptor protein and ligand concentration was optimized such that no more than 20% of the added radiolabeled ligand was bound to the receptor.
The following day, 100 mcl of hydroxylapatite slurry (50%) was added to each tube and mixed at 10-minute intervals for 30 minutes. […] After the final wash, the pellets were transferred to scintillation vials containing 4 ml of Biosafe II scintillation cocktail, mixed and placed in a scintillation counter. Total binding was determined from the tubes containing only radiolabeled ligand.

[2] = test system: Human promyelocytic leukemia (HL60) cells; experiment: HL-60 cell differentiation (nitro blue tetrazolium reduction); format: cell-based; details: four days treatment, read-out: EC50, promotion of HL60 differentiation
Method: The study drugs were dissolved in ethanol and the concentrations determined using UV spectrophotometry. Serial dilutions were prepared so that a range of drug concentrations could be tested without changing the final concentration of ethanol (≦0.2%) present in the cell cultures.
Human promyelocytic leukemia (HL60) cells were grown in RPMI-1640 medium containing 10% fetal bovine serum. The cells were incubated at 37° C. in the presence of 5% CO2.
HL60 cells were plated at 1.2×10^5 cells/ml. Eighteen hours after plating, cells in duplicate were treated with drug. Four days later, the cells were harvested and a nitro blue tetrazolium reduction assay was performed (Collins et al., 1979; J. Exp. Med. 149:969-974). The percentage of differentiated cells was determined by counting a total of 200 cells and recording the number that contained intracellular black-blue formazan deposits. Verification of differentiation to monocytic cells was determined by measuring phagocytic activity (data not shown).

vitamin D-deficient rats [3] = experiment: Bone calcium mobilization (serum calcium); format: in vivo, rat
Method: (§1) Male, weanling Sprague-Dawley rats were placed on Diet 11 (Suda et al, J. Nutr. 100:1049, 1970) (0.47% Ca)+vitamins AEK for one week followed by Diet 11 (0.02% Ca)+vitamins AEK for 3 weeks. The rats were then switched to the same diet containing 0.47% Ca for one week followed by two weeks on the same diet containing 0.02% Ca. Dose administration began during the last week on 0.02% calcium diet. Four consecutive ip doses were given approximately 24 hours apart. Twenty-four hours after the last dose, blood was collected from the severed neck and the concentration of serum calcium determined by atomic absorption spectrometry as a measure of bone calcium mobilization. The first 10 cm of the intestine was also collected for intestinal calcium transport analysis using the everted gut sac method.

vitamin D-deficient rats [4] = experiment: Intestinal calcium transport (everted gut sac method); format: in vivo, rat; details: rats on 0.02% Ca diet, four consecutive ip doses
Method: as §1

[5] = test system: 24-hydroxylase (24Ohase) gene promoter; experiment: In vitro transcription assay, luciferase reporter in ROS 17/2.8 (bone) cells; format: cell-based; details: FIG. 3; for EC50: ROS 17/2.8 cells, sixteen hours after dosing, read-out: EC50, transcriptional activity in bone cells (24-hydroxylase gene)
Method: Transcription activity was measured in ROS 17/2.8 (bone) cells that were stably transfected with a 24-hydroxylase (24Ohase) gene promoter upstream of a luciferase reporter gene (Arbour et al., 1998). Cells were given a range of doses. Sixteen hours after dosing the cells were harvested and luciferase activities were measured using a luminometer. RLU=relative luciferase units.

[6] = 780 pmol/day for 4 consecutive days, ip, rats on 0.02% Ca diet
[7] = four consecutive ip doses, rats on 0.02% Ca diet

Row | Ki ([1]; FIG. 6 experiment (1D-MJ vs 1,25(OH)2D3)) | EC50 ([2]; Homo sapiens, HL-60, 96 h, FIG. 7 experiment) | Ki ([1]; FIG. 1 experiment (1-desoxy-2MD vs 1,25(OH)2D3)) | EC50 ([2]; Homo sapiens, HL-60, 96 h, FIG. 2 experiment) | SMILES | mobilization of bone calcium (serum calcium) (vitamin D-deficient rats [3]; [6]) | dose until which little to no bone calcium mobilization activity is observed (vitamin D-deficient rats [3]; [7]) | times less potent than 1,25(OH)2D3 in promoting intestinal calcium transport (vitamin D-deficient rats [4]) | EC50 [5] | times less potent than 1,25(OH)2D3 in increasing transcription of the 24-hydroxylase gene ([5]; bone cells) | EC50 ([2]; FIG. 2 experiment) | EC50 ([2]; FIG. 7 experiment) | mobilization of bone calcium (serum calcium) (vitamin D-deficient rats [3]; 87 pmol, four consecutive ip doses, FIG. 8)
1 | 4 nM | 300 nM |  |  | C=C1CC/C(=C\C=C2/CCC[C@]3(C)[C@@H]([C@H](C)CCCC(C)(C)O)CC[C@@H]23)C[C@H]1O [1D-MJ, (20R)-25-hydroxy-2-methylene-19-nor-vitamin D3] | little or no mobilization of bone calcium | ≥ 7020 pmol/rat | about 10 times |  |  |  |  | 
2 |  |  | 0.1 nM | 10 nM | C=C1CC/C(=C\C=C2/CCC[C@]3(C)[C@@H]([C@@H](C)CCCC(C)(C)O)CC[C@@H]23)C[C@H]1O [1-desoxy-2MD, (20S)-25-hydroxy-2-methylene-19-nor-vitamin D3] | little or no mobilization of bone calcium | ≥ 7020 pmol/rat | about 20 times | 4 nM | about 20 times |  |  | 
3 |  |  |  |  | C=C1/C(=C\C=C2/CCC[C@]3(C)[C@@H]([C@H](C)CCCC(C)(C)O)CC[C@@H]23)C[C@@H](O)C[C@@H]1O [1α,25-dihydroxyvitamin D3, reference compound] | significant increases in serum calcium |  |  | 0.2 nM |  | 4 nM | 3 nM | significant increases in serum calcium
